For series [1], the target named is T1, iNOS in RAW 264.7 cells (Mus musculus, UniProt P29477).
T1 construct: In RAW 264.7 cells, iNOS was induced by LPS (1 µg/mL, Sigma-Aldrich) for 24 h; endogenous in cells; host or cells: RAW 264.7 murine macrophages, LPS-induced
The experiment in a line: Inhibition of NO production (nitrite, Griess) in LPS-stimulated cells. The following applies: RAW264.7; RAW 264.7, LPS 1 µg/mL, 100 μM compound; read-out: Inhibition of intracellular NO production. In kind it is cell-based, murine. As to the method:
We evaluated the ability of selected compounds (dipeptides 7, 8, and 21 and 1,2,4-oxadiazoles 30 and 40) to inhibit iNOS in RAW 264.7 cells (Figure 2), where iNOS was induced by LPS (1 µg/mL). iNOS activity was measured following LPS induction by quantifying nitrite accumulation in the supernatant. […] A similar result was previously reported.
In RAW 264.7 cells, iNOS was induced by LPS (1 µg/mL, Sigma-Aldrich) for 24 h. All studied compounds were incubated with cells during the last 24 h.
(§1) Cellular NO production was measured using the Griess reagent (Sigma-Aldrich), which evaluates the nitrite content in culture media. Cellular toxicity was estimated by the MTT assay (Sigma-Aldrich) in RAW 264.7 cells after the induction (or not) of iNOS by LPS, according to the manufacturer’s recommendations.

For series [2], the target named is T2, rat nNOS (Rattus norvegicus, UniProt P29476).
T2 construct: Full-length recombinant rat nNOS, mouse iNOS, bovine eNOS; made in house; host or cells: Escherichia coli
T2 sequence (P29476 whole entry): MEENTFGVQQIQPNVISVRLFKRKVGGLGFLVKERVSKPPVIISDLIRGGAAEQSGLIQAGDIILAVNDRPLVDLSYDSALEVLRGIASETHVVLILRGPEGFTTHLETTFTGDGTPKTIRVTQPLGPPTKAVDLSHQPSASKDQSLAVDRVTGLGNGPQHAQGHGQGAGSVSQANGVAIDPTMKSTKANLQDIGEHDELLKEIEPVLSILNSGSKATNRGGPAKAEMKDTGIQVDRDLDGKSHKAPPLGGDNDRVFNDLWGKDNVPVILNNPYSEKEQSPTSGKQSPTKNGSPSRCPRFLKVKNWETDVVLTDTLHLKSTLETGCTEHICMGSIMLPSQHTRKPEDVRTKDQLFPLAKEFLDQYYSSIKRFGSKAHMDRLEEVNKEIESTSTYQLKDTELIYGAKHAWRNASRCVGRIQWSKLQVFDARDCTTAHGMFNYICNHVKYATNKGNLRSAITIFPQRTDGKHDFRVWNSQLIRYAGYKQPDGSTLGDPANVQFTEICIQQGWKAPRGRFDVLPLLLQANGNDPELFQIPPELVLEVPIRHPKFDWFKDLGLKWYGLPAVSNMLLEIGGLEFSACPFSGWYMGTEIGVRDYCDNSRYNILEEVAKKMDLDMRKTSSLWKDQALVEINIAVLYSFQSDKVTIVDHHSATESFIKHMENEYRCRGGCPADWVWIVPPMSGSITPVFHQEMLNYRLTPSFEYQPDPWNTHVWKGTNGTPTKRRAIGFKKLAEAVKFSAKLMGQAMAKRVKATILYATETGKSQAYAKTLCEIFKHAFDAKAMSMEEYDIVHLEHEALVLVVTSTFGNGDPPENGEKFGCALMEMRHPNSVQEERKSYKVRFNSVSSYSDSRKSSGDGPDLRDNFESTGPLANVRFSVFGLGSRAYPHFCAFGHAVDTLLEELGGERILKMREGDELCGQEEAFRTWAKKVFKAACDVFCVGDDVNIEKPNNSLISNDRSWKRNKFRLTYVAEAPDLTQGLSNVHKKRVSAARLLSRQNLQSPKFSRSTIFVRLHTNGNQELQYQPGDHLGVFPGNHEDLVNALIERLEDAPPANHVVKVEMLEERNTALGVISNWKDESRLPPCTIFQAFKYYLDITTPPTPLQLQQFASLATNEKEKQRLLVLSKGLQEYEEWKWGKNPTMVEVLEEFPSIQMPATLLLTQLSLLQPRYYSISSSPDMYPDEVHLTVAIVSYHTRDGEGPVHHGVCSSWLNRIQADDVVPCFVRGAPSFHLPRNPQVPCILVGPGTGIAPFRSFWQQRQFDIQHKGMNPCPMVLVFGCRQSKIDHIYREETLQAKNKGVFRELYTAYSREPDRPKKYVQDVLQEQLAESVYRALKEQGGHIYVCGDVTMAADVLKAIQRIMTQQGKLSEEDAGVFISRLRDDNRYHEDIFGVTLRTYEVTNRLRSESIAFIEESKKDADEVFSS
Put plainly: NOS inhibition, oxyhemoglobin (hemoglobin capture) test, recombinant nNOS. The class given is biochemical. The settings on record: recombinant enzyme, 10 µM arginine, triplicate, NI = <50% inhibition at 100 μM. The method, then: (§2) The inhibitory effects of all compounds against the three recombinant NOSs (rat nNOS, mouse iNOS, and bovine eNOS) were evaluated in 96-well plates using the oxyhemoglobin test. A first screening at 100 and 10 μM was performed, and the IC50 values were measured for compounds showing more than 50% inhibition at 100 μM (Table 1 and Table 2).
(§3) Full-length recombinant rat nNOS, mouse iNOS, bovine eNOS, and the heme domains of rat brain nNOS and mouse iNOS were expressed in Escherichia coli and purified as described previously.
(§4) NOS catalytic activity was measured using the hemoglobin capture assay. The test was performed at 30 °C in 96-well microplates using a final volume of 200 µL. The assay mixture contained 100 µM NADPH, 10 µM BH4, 6 µM HbO2, 100 µM DTT, 5 µM FAD, 5 µM FMN, 10 µM (nNOS and eNOS), or 20 µM (iNOS) arginine, all in a 100 mM Hepes buffer, pH 7.5, and, for constitutive n- and e-NOS, 10 µg/mL calmodulin, and 1 mM CaCl2. The studied compounds were introduced as 2 μL of ×100 concentrated solutions in DMSO, and the control experiments were performed with DMSO or the buffer only. The kinetics of NO production were measured at 401 nm using an Infinite F500 microplate reader (Tecan, Singapore).

Series [3] relates to RAW 264.7 cells. Put plainly: Cell viability, MTT assay. The class given is cell-based, murine. As to the method:
Cell viability was evaluated in the murine macrophage RAW 264.7 cells using an MTT assay for compounds 18, 21, 26, and 30. This experiment was performed without or with LPS (1 µg/mL), which induces iNOS expression (Figure S1). […] Compound 30 only killed 20% of the cells at 500 μM (Figure S1A). In the presence of LPS (1 µg/mL), cell viability was reduced by 30% due to the inhibition by NO of key enzymes involved in cell metabolism (Figure S1B).
The macrophage cell line RAW 264.7 (a gift from Dr. A. Blangy, Montpellier, France) was cultured in Dulbecco’s Modified Eagle’s Medium (DMEM) supplemented with 10% FCS, 100 units/mL penicillin, 100 µg/mL streptomycin, and 2 mM L-glutamine.
as §1
Background: Formazan colour is commonly taken as a measure of viable cells.

The target in series [4] is T3, bovine eNOS (Bos taurus, UniProt P29473).
T3 construct: Full-length recombinant rat nNOS, mouse iNOS, bovine eNOS; made in house; host or cells: Escherichia coli
T3 sequence (P29473 whole entry): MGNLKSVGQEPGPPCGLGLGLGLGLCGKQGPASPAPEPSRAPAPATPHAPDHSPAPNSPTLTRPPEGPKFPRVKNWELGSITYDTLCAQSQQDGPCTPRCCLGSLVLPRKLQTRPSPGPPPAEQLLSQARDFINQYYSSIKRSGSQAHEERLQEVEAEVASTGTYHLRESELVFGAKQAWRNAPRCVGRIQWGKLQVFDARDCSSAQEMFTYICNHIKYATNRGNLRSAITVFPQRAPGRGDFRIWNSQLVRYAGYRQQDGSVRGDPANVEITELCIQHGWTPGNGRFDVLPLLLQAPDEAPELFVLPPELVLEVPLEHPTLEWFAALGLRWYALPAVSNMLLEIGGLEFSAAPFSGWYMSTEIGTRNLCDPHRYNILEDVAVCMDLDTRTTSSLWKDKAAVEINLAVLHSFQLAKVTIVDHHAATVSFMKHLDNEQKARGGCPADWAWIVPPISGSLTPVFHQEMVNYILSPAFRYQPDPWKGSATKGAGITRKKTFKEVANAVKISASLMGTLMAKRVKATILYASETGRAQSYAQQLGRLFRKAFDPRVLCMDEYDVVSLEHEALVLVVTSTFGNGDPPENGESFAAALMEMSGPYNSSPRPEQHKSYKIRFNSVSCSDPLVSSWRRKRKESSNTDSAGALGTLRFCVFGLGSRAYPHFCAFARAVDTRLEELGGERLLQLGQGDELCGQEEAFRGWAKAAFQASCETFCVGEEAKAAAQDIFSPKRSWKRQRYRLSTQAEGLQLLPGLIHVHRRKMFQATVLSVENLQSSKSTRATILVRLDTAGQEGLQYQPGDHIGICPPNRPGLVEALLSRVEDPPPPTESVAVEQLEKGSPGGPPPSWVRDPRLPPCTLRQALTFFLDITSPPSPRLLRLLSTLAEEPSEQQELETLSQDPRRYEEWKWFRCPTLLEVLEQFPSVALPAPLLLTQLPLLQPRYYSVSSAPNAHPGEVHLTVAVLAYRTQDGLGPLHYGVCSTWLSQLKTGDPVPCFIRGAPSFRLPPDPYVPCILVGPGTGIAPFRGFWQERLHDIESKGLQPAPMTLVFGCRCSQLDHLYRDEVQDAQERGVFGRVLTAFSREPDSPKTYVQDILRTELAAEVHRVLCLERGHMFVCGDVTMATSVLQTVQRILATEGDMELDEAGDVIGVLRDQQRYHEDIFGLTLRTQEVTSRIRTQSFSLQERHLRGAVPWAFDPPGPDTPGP
The experiment in a line: NOS inhibition, oxyhemoglobin (hemoglobin capture) test, recombinant eNOS. In kind it is biochemical. The settings on record: recombinant enzyme, 10 µM arginine, triplicate, NI = <50% inhibition at 100 μM, read-out: IC50 (μM) eNOS (Bovine).
Protocol: The inhibitory effects of all compounds against the three recombinant NOSs (rat nNOS, mouse iNOS, and bovine eNOS) were evaluated in 96-well plates using the oxyhemoglobin test [53].
NOS catalytic activity was measured using the hemoglobin capture assay [53]. The test was performed at 30 °C in 96-well microplates using a final volume of 200 µL. The assay mixture contained 100 µM NADPH, 10 µM BH4, 6 µM HbO2, 100 µM DTT, 5 µM FAD, 5 µM FMN, 10 µM (nNOS and eNOS), or 20 µM (iNOS) arginine, all in a 100 mM Hepes buffer, pH 7.5, and, for constitutive n- and e-NOS, 10 µg/mL calmodulin, and 1 mM CaCl2. The studied compounds were introduced as 2 μL of ×100 concentrated solutions in DMSO, and the control experiments were performed with DMSO or the buffer only. The kinetics of NO production were measured at 401 nm using an Infinite F500 microplate reader (Tecan, Singapore).

Series [5] addresses T4, mouse iNOS (Mus musculus, UniProt P29477).
T4 construct: Full-length recombinant rat nNOS, mouse iNOS, bovine eNOS; made in house; host or cells: Escherichia coli
T4 sequence (P29477 1-1144): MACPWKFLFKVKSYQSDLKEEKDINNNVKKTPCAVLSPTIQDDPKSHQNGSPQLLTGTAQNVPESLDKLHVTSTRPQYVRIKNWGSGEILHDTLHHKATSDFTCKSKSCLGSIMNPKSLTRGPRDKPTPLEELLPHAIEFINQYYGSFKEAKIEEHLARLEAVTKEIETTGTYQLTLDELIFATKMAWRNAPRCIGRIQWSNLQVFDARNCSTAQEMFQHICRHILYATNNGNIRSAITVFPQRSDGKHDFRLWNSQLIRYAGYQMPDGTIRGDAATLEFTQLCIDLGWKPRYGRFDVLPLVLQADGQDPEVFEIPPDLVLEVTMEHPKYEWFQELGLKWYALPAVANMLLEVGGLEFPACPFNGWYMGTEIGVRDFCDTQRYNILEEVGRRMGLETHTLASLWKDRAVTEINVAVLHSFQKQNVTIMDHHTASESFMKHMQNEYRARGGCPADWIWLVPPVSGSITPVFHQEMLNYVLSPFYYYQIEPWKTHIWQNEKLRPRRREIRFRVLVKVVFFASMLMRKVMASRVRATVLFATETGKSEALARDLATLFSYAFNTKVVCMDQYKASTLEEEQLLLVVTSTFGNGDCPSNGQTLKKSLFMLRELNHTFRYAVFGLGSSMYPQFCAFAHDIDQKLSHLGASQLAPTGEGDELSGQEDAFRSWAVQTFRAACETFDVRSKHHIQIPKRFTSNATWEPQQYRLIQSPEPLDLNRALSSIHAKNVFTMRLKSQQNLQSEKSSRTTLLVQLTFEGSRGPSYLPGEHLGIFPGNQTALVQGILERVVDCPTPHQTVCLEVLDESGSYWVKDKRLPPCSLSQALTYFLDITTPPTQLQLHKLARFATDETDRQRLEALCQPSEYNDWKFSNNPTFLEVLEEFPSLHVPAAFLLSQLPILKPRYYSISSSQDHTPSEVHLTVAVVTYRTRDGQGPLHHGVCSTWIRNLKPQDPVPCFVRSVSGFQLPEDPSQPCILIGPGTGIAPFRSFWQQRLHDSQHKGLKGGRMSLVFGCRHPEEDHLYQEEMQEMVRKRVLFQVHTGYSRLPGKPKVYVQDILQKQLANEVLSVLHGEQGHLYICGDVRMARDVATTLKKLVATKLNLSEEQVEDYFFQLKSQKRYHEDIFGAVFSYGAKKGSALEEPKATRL
Put plainly: NOS inhibition, oxyhemoglobin (hemoglobin capture) test, recombinant iNOS. In kind it is biochemical. The settings on record: recombinant enzyme, 20 µM arginine, triplicate, NI = <50% inhibition at 100 μM. The method, then:
as §2, §3, §4

Series [6] deals with mouse iNOS. The description is as above. In kind it is biochemical. The following applies: from IC50 values. As to the method: as §2, §3, §4
Series [7] relates to nNOS. Set-up: method as in PMID 14718923. The following applies: cited from earlier work.
The target in series [8] is eNOS. Further details: method as in PMID 14718923. The following applies: read-out: Experimental Ki eNOS; cited from earlier work.
Series [9] deals with iNOS. Further details: method as in PMID 32027778. The settings on record: Figure 1; previously described compounds; cited from earlier work.
Series [10] has as its system nNOS. Set-up: method as in PMID 32027778. The settings on record: Figure 1; previously described compounds; cited from earlier work.
In series [11] the test system is eNOS. Set-up: method as in PMID 32027778. The following applies: Figure 1; previously described compounds; cited from earlier work.
The subject of series [12] is RAW 264.7 cells. Further details: method as in PMID 32027778. The following applies: RAW 264.7, LPS; cited from earlier work.
Series [13] deals with T5, oxygenase domain of iNOS (iNOSoxy) (Mus musculus, UniProt P29477).
T5 construct: the oxygenase domain of nNOS (nNOSoxy) and iNOS (iNOSoxy); made in house; host or cells: Escherichia coli
T5 sequence (P29477 1-498 limits assumed): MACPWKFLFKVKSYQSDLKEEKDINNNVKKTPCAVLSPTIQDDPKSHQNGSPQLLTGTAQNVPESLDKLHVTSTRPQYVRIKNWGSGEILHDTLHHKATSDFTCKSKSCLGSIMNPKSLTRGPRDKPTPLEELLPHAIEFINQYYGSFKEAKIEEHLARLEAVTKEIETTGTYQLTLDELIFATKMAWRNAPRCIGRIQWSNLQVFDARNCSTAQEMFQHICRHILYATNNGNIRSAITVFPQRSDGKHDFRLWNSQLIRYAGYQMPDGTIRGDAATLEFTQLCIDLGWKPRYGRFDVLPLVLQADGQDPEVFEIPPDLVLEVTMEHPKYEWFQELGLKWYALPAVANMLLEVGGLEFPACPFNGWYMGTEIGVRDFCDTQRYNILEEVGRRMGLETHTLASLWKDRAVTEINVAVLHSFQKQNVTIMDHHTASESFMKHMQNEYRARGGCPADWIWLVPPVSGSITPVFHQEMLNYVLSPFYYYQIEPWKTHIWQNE
Put plainly: UV-visible difference spectroscopy titration of iNOSoxy. The settings on record: UV/Vis difference spectroscopy, ± SD, three experiments; read-out: Apparent equilibrium constant Ks iNOSoxy. In kind it is binding.
Source text: (§5) We performed UV–visible difference spectroscopy to analyze the interaction mode of some inhibitors with the heme-active site of NOS [54]. We have studied the effects of dipeptide-like compounds 7, 17, 19, 23, and 27 and 1,2,4-oxadiazole 35 on the UV–visible spectra of the oxygenase domain of nNOS (nNOSoxy) and iNOS (iNOSoxy). As expected, when added stepwise to n- and iNOSoxy, all selected compounds elicited different spectra with a trough at ~425 nm and a peak at ~395 nm, similar to the substrate L-arginine. This profile is characteristic of type I interactions, meaning that they are bound in close proximity to the heme prosthetic group and shifted the spin state equilibrium to the pentacoordinated heme–Fe^III state. Double reverse plotting of the differences in absorbance between the peak at ~395 nm and valley at ~425 nm (ΔA395–425 nm) as a function of the concentration of the added compounds allowed calculating apparent binding constants (Ks) (Table 3). The reference inhibitor SEITU [55] tightly bound both NOS isoforms with high affinity but no selectivity. With the exception of the dipeptide-like 27 and the heterocyclic analog 35, which similarly interacted with both proteins, other compounds preferentially bound nNOSoxy over iNOSoxy with apparent affinities close to SEITU for this isoform.
as §3
(§6) This study was performed as previously described.

Series [14] has as its target T6, oxygenase domain of nNOS (nNOSoxy) (Rattus norvegicus, UniProt P29476).
T6 construct: the oxygenase domain of nNOS (nNOSoxy) and iNOS (iNOSoxy); made in house; host or cells: Escherichia coli
Put plainly: UV-visible difference spectroscopy titration of nNOSoxy. In kind it is binding. The settings on record: UV/Vis difference spectroscopy, ± SD, three experiments; read-out: Apparent equilibrium constant Ks nNOSoxy.
Source text: as §5, §3, §6

Read-outs that look alike come from different tables or passages of the source. Bounds are passed on as bounds.

T6 sequence (P29476 1-720 limits assumed): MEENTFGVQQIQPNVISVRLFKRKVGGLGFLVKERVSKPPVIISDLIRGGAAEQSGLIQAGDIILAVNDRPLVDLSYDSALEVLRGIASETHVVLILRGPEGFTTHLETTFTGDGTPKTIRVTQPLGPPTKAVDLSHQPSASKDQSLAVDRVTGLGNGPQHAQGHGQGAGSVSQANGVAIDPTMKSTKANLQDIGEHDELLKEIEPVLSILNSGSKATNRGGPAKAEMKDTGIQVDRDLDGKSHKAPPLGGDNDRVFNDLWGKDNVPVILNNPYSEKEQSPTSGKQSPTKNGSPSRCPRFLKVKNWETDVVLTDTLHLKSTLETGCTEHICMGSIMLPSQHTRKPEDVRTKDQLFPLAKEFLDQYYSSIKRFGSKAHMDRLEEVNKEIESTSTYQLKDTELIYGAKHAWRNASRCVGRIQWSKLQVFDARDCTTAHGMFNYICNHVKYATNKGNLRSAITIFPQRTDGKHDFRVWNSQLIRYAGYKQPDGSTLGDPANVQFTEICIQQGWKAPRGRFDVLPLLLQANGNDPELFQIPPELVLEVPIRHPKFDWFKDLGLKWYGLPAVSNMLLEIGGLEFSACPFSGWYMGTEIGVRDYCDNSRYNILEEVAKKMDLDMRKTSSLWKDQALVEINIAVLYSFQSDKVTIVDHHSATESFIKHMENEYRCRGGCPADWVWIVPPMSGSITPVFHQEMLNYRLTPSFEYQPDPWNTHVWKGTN

Regarding `CCSC(=N)NCCC[C@H](N)C(=O)N[C@H]1CCCN(Cc2cccc(Br)c2)C1` [Compound 21], the inhibition at 100 µM in series [1] was 80%; in series [4] (dipeptide-like series) it was less than 50%. Besides, the IC50 in [2] (dipeptide-like series) worked out at 1 µM; in [5] (dipeptide-like series), 45.5 µM. Moreover, in series [3] (RAW 264.7, LPS 1 µg/mL), the “Reversal of LPS-induced reduction of cell viability” value is given as “none partially reversed the LPS effect”. Moreover, the “Effect on cell viability (MTT)” value in series [3] (RAW 264.7, absence of LPS, up to 100 μM) is “did not modify cell viability”.
Take `CCSC(=N)NCCC[C@H](N)c1nc(CCN(Cc2ccccc2[N+](=O)[O-])Cc2ccccc2[N+](=O)[O-])no1` [Compound 40]: the IC50 in series [2] (1,2,4-oxadiazole series) is 61 µM. The inhibition at 100 µM in series [4] (1,2,4-oxadiazole series) was less than 50%. In addition, the concentration for half-maximal inhibition (IC50) in series [5] (1,2,4-oxadiazole series) was 2 µM. In series [6], the “Selectivity for iNOS toward eNOS” value is more than 50 fold and the “Selectivity for iNOS toward nNOS” value was 30 fold.
As to `N=C(NCCC[C@H](N)C(=O)N1C[C@H](N)C[C@H]1C(N)=O)N[N+](=O)[O-]` [DP9, L-Nω-nitroarginine-(4R)-amino-L-prolinamide], the “Selectivity in favor of nNOS over eNOS” value in series [7] is reported as 1000 fold. Moreover, the Ki in series [7] (read-out: Experimental Ki nNOS) was 0.1 µM; in [8], 110 µM.
Turning to `CCSC(=N)NCCC[C@H](N)c1nc(C)no1` [JMV3457], the IC50 is 19 µM in series [9], 9.4 µM in series [10] and 45 µM in series [11].
Turning to `CCSC(=N)NCCC[C@H](N)C(=O)NCCCN` [JMV4246], the half-maximal inhibitory concentration (IC50) in series [9] was 48 µM; in series [10] it was 6.6 µM; in series [11], 52 µM.
On to `CC(=N)NCCCC[C@H](N)C(=O)O` [L-NIL], for which the “Reversal of LPS-induced reduction of cell viability” value in series [12] is reported as “partially reversed the LPS effect”.
Take `CCSC(=N)N` [SEITU, reference compound]: in series [12], the “Reversal of LPS-induced reduction of cell viability” value is “partially reversed the LPS effect”. Further, the results for the Kd in series [13] and in [14] were 1.7 ± 0.1 µM and 6.4 ± 1.5 µM, respectively.

Broadly, the IC50 is the concentration at which inhibition is half-maximal. What is called Ki is the dissociation constant of the complex between target and ligand, obtained from inhibition or displacement.

The record behind these values is publication PMC10343299, “S-Ethyl-Isothiocitrullin-Based Dipeptides and 1,2,4-Oxadiazole Pseudo-Dipeptides: Solid Phase Synthesis and Evaluation as NO Synthase Inhibitors” (Molecules, 2023).
